# Results from patent US10865417B2, “Yeast synthetic biology platform for identifying shikimate pathway enzyme inhibitors” (New York University, priority 2018, dated 2020).
# Key:
# [1] = test system: yeast avatars expressing heterologous shikimate pathways (EPSPS enzyme); assay: Yeast avatar glyphosate sensitivity assay (panel of avatars); format: cell-based, Saccharomyces cerevisiae
# [2] = test system: Staphylococcus aureus pathway; assay: Yeast avatar glyphosate sensitivity assay, Staphylococcus aureus pathway; format: cell-based; conditions: aro1Δ yeast carrying Staphylococcus aureus pathway, 0.25% glyphosate, FIG. 3
# [3] = test system: Neisseria gonorrhoeae pathway; assay: Yeast avatar glyphosate sensitivity assay, Neisseria gonorrhoeae pathway; format: cell-based; conditions: aro1Δ yeast carrying Neisseria gonorrhoeae pathway, 0.25% glyphosate, FIG. 3
# [4] = target: T1, step 2 (DHQS) of Neisseria gonorrhoeae (Neisseria gonorrhoeae, UniProt Q5FAD4); assay: N−1 assay for molecular target of glyphosate, [Sau HGC] lacking step 2; format: cell-based; conditions: aro1Δ [Ngo] yeast with [Sau HGC] lacking step 2, −AAA, 0.25% glyphosate
# T1 construct: expressed in transfected cells; host or cells: Saccharomyces cerevisiae aro1Δ, co-transformed with [Sau HGC] lacking step 2
# T1 sequence (Q5FAD4 whole entry): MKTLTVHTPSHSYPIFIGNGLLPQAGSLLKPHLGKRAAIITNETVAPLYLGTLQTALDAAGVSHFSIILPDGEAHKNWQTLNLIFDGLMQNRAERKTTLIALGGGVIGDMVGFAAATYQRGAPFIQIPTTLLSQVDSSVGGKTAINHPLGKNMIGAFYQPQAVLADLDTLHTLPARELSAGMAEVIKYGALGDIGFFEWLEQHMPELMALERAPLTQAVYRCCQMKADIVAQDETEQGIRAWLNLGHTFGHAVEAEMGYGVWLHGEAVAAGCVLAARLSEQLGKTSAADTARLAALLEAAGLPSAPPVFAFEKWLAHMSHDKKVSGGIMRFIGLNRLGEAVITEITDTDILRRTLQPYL
# Excerpt: (§1) FIG. 6. Molecular target identification of the shikimate pathway inhibitor glyphosate in the yeast avatar system. Yeast cells lacking ARO1 (aro1Δ) carrying the Neisseria gonorrhoeae pathway ([Ngo]) or an empty vector (empty) were co-transformed with a full-length Staphylococcus aureus pathways ([Sau HGC]), one of five derivatives of [Sau HGC] lacking a single enzymatic activity (step 2, step 3, step 4, step 5, step 6), or an empty vector (empty) lacking all shikimate pathway enzymatic activities. Cells were plated on replete medium including aromatic amino acids (+AAA) or selective medium lacking aromatic amino acids (−AAA). 0.25% glyphosate (vol/vol of a commercially available 41% solution of glyphosate) was added to the plates where indicated. Cell growth indicates complementation and absence of cell growth indicates no complementation.
# (§2) As discussed above, five steps of the endogenous shikimate pathway are provided by a single gene, ARO1, which encodes a penta-functional protein (FIG. 1, 2). […] To distinguish between these possibilities and determine whether any of the heterologous enzymatic activities are functional in yeast, the “N−1” assay can be used. […] Each of the five strains can then be evaluated for complementation on medium lacking aromatic amino acids. […]
# [5] = test system: step 6 (EPSPS) of Neisseria gonorrhoeae; assay: N−1 assay for molecular target of glyphosate, [Sau HGC] lacking step 6; format: cell-based, yeast (aro1Δ) carrying Neisseria gonorrhoeae pathway; conditions: aro1Δ [Ngo] yeast with [Sau HGC] lacking step 6, −AAA, 0.25% glyphosate
# Excerpt: as §1, §2
# [6] = target: step 2 of the pathway, DHQS (Escherichia coli, UniProt P07639); conditions: reference (25); cited from earlier work
# Sequence of step 2 of the pathway, DHQS (P07639 whole entry): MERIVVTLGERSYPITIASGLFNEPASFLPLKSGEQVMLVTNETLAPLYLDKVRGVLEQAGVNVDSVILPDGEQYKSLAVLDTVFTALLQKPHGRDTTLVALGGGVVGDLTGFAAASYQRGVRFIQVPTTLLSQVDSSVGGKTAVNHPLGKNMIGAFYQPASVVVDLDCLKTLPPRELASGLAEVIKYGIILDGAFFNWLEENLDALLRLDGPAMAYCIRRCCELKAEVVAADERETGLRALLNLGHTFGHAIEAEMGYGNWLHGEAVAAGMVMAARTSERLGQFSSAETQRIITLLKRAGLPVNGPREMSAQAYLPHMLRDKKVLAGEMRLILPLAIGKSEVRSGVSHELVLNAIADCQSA
smiles,measurement,setting,value
O=C(O)CNCP(=O)(O)O [glyphosate],ability of yeast avatars to grow on glyphosate,"[1]; 0.25% glyphosate (vol/vol of 41% solution), medium lacking aromatic amino acids, 6 days at 30° C., a number of avatars",sensitive
same,glyphosate sensitivity upon supplementation of aromatic amino acids,"[1]; 0.25% glyphosate, plus tryptophan, phenylalanine and tyrosine",glyphosate sensitivity was overcome
same,growth of avatar on glyphosate (sensitivity/resistance),[2],resistant
same,growth of avatar on glyphosate (sensitivity/resistance),[3],demonstrated sensitivity
same,cell growth,[4],completely inhibited
same,sensitivity of enzymatic activity to glyphosate,[4],sensitive
same,cell growth,[5],completely inhibited
same,sensitivity of enzymatic activity to glyphosate,[5],sensitive
same,inhibition of DHQS,[6],inhibits
